Assay results published in patent publication US20230113037A1 (Bayer Aktiengesellschaft, priority 2019, published 2023).
“And” between values parts separate entries of the source, which are not always exact repeats. Equal values may be shown once.

What was measured:
[1] = biological target: T1, AHR (Homo sapiens, UniProt P35869); test: In vitro assay 1: antagonism in human cell line (AHR transactivation, firefly luciferase reporter, kynurenic acid prestimulated); type: cell-based; conditions: AHR Antagonism Human IC50 [M]
T1 construct: U87 MG glioblastoma cells (ATCC #HTB-14) endogenously expressing AHR; endogenous in cells; host or cells: U87 MG glioblastoma cells (ATCC #HTB-14)
T1 sequence (P35869 11-848): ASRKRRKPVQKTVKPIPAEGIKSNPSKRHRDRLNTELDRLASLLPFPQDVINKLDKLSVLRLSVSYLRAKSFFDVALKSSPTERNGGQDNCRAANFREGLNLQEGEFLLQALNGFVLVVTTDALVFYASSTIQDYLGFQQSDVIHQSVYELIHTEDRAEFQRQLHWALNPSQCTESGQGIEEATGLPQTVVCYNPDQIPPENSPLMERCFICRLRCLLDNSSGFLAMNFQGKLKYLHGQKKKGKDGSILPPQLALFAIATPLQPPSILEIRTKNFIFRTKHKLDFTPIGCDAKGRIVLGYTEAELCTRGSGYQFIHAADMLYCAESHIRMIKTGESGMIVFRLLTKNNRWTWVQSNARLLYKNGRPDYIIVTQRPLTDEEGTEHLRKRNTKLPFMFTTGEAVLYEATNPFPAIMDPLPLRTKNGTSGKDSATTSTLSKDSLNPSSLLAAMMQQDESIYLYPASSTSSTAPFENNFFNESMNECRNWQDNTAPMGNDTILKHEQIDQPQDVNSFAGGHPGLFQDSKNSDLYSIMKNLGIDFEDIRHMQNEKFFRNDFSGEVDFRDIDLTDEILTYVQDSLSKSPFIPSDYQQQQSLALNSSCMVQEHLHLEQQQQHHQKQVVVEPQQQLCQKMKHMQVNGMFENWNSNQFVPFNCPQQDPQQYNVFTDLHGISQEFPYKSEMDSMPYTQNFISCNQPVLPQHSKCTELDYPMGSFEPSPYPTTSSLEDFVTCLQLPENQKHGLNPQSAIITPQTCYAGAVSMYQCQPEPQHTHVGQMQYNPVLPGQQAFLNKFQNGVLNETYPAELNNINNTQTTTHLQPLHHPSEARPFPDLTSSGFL
Outline: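 Antagonism is measured against kynurenic acid prestimulation in U87 MG glioblastoma cells carrying stable DRE-luciferase and Renilla reporters. Positive inhibition control: 150 μM kynurenic acid with 5 μM staurosporine. Values are normalized to controls; repeats are averaged or given as medians.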

[2] = biological target: T2, AHR (Mus musculus, UniProt P30561); test: In vitro assay 3: antagonism in mouse cell line (AHR transactivation, firefly luciferase reporter, kynurenic acid prestimulated); type: cell-based; conditions: mouse Hepa 1c1c7 cells, 200 μM kynurenic acid, 20 hours, read-out: AHR Antagonism Mouse IC50
T2 sequence (P30561 1-848 P471L/N533S/M589L): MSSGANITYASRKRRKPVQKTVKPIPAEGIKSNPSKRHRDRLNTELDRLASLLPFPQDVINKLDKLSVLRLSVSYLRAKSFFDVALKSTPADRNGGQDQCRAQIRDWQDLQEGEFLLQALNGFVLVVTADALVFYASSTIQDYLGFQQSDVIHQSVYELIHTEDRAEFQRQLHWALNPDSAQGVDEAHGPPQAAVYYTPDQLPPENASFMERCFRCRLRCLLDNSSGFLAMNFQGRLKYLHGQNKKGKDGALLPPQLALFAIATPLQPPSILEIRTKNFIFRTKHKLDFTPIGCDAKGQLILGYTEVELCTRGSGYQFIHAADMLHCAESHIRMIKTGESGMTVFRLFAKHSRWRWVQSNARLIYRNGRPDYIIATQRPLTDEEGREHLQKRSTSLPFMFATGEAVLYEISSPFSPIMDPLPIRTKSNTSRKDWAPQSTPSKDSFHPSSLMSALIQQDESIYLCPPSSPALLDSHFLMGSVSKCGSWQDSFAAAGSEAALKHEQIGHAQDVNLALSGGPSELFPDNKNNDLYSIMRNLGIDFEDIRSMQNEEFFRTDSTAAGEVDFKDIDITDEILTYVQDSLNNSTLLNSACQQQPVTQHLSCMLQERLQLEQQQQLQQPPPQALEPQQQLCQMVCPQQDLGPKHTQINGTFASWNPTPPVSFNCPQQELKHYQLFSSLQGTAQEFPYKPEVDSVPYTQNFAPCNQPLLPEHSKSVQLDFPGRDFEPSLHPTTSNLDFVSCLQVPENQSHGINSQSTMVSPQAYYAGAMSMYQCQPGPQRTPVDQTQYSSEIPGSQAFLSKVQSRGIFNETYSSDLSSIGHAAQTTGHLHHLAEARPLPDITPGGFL
Outline: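 Antagonism read as reduced firefly luciferase signal (SteadyGlo) from a stably transfected AHR/DRE reporter in a mouse line prestimulated with kynurenic acid. Data normalized to controls, the full-inhibition control being cells without kynurenic acid; multiple determinations given as average or median values.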

IC50 [1] | IC50 [2] | SMILES
2.11e-09 M | 0.000437 µM | CC[C@@H](Nc1nc2ccccc2c2nc(-c3cccc(OC)c3)nn12)C(N)=O [Example 88, (2R)-2-{[2-(3-methoxyphenyl)[1,2,4]triazolo[1,5-c]quinazolin-5-yl]amino}butanamide]
1.29e-08 M | 0.0128 µM | COc1cccc(-c2nc3c4ccccc4nc(N[C@@H](C(N)=O)c4ccccc4)n3n2)c1 [Example 89, (2R)-2-{[2-(3-methoxyphenyl)[1,2,4]triazolo[1,5-c]quinazolin-5-yl]amino}-2-phenylacetamide]
4.54e-09 M | 0.00634 µM | COc1cccc(-c2nc3c4ccccc4nc(N[C@H](Cc4ccccc4)C(N)=O)n3n2)c1 [Example 90, N^2-[2-(3-methoxyphenyl)[1,2,4]triazolo[1,5-c]quinazolin-5-yl]-D-phenylalaninamide]
> 2e-05 M | > 20 µM | COc1cccc(-c2nc3c4ccccc4nc(N[C@H](CO)C(=O)O)n3n2)c1 [Example 91, N-[2-(3-methoxyphenyl)[1,2,4]triazolo[1,5-c]quinazolin-5-yl]-D-serine]
8.63e-09 M | 0.00438 µM | COc1cccc(-c2nc3c4ccccc4nc(N[C@H](C)C(N)=O)n3n2)c1 [Example 92, N^2-[2-(3-methoxyphenyl)[1,2,4]triazolo[1,5-c]quinazolin-5-yl]-D-alaninamide]
1.52e-07 M | 0.427 µM | COc1cccc(-c2nc3c4ccccc4nc(N[C@H](CC(C)C)C(=O)O)n3n2)c1 [Example 93, N-[2-(3-methoxyphenyl)[1,2,4]triazolo[1,5-c]quinazolin-5-yl]-D-leucine]
1.56e-07 M | 0.0841 µM | COc1cccc(-c2nc3c4ccccc4nc(N[C@@H](C(N)=O)[C@H](C)OCc4ccccc4)n3n2)c1 [Example 97, O-benzyl-N^2-[2-(3-methoxyphenyl)[1,2,4]triazolo[1,5-c]quinazolin-5-yl]-D-threoninamide]
3.48e-06 M | 0.145 µM | COc1cccc(-c2nc3c4ccccc4nc(N[C@@H](CCCCNC(=O)OC(C)(C)C)C(N)=O)n3n2)c1 [Example 101, tert-butyl[(5S)-6-amino-5-{[2-(3-methoxyphenyl)[1,2,4]triazolo[1,5-c]quinazolin-5-yl]amino}-6-oxohexyl]carbamate]
6.01e-07 M | 0.246 µM | CNC(=O)[C@H](C)Nc1nc2ccccc2c2nc(-c3cccc(OC)c3)nn12 [Example 102, N^2-[2-(3-methoxyphenyl)[1,2,4]triazolo[1,5-c]quinazolin-5-yl]-N-methyl-L-alaninamide]
4.43e-09 M | 0.000345 µM | COc1cccc(-c2nc3c4ccccc4nc(N[C@@H](C(N)=O)C(C)C)n3n2)c1 [Example 103, N^2-[2-(3-methoxyphenyl)[1,2,4]triazolo[1,5-c]quinazolin-5-yl]-D-valinamide]
1.12e-08 M | 0.00243 µM | COC(=O)[C@H](Nc1nc2ccccc2c2nc(-c3cccc(OC)c3)nn12)C(C)C [Example 104, methyl N-[2-(3-methoxyphenyl)[1,2,4]triazolo[1,5-c]quinazolin-5-yl]-D-valinate]
8.86e-09 M | 0.00735 µM | COc1cccc(-c2nc3c4ccccc4nc(N[C@H](C)C(=O)NC(C)C)n3n2)c1 [Example 105, N^2-[2-(3-methoxyphenyl)[1,2,4]triazolo[1,5-c]quinazolin-5-yl]-N-propan-2-yl-D-alaninamide]
7.97e-09 M | 0.00491 µM | COc1cccc(-c2nc3c4ccccc4nc(N[C@H](C)C(=O)NC4CC4)n3n2)c1 [Example 106, N-cyclopropyl-N^2-[2-(3-methoxyphenyl)[1,2,4]triazolo[1,5-c]quinazolin-5-yl]-D-alaninamide]
1.06e-08 M | 0.00986 µM | CCNC(=O)[C@@H](C)Nc1nc2ccccc2c2nc(-c3cccc(OC)c3)nn12 [Example 107, N-ethyl-N^2-[2-(3-methoxyphenyl)[1,2,4]triazolo[1,5-c]quinazolin-5-yl]-D-alaninamide]
5.75e-09 M | 0.00358 µM | CNC(=O)[C@@H](C)Nc1nc2ccccc2c2nc(-c3cccc(OC)c3)nn12 [Example 108, N^2-[2-(3-methoxyphenyl)[1,2,4]triazolo[1,5-c]quinazolin-5-yl]-N-methyl-D-alaninamide]
6.94e-09 M | 0.00415 µM | COc1cccc(-c2nc3c4ccccc4nc(N[C@H](C)C(=O)NC4CCC4)n3n2)c1 [Example 109, N-cyclobutyl-N^2-[2-(3-methoxyphenyl)[1,2,4]triazolo[1,5-c]quinazolin-5-yl]-D-alaninamide]
1.01e-08 M | 0.0049 µM | COc1cccc(-c2nc3c4ccccc4nc(N[C@H](C)C(=O)N(C)C)n3n2)c1 [Example 110, N^2-[2-(3-methoxyphenyl)[1,2,4]triazolo[1,5-c]quinazolin-5-yl]-N,N-dimethyl-D-alaninamide]
1.42e-08 M | 0.0158 µM | COc1cccc(-c2nc3c4ccccc4nc(N[C@H](C)C(=O)NCCO)n3n2)c1 [Example 111, N-(2-hydroxyethyl)-N^2-[2-(3-methoxyphenyl)[1,2,4]triazolo[1,5-c]quinazolin-5-yl]-D-alaninamide]
3.79e-08 M | 0.006 µM | COc1cccc(-c2nc3c4ccccc4nc(N[C@H](C)C(=O)NCCCO)n3n2)c1 [Example 112, N-(3-hydroxypropyl)-N^2-[2-(3-methoxyphenyl)[1,2,4]triazolo[1,5-c]quinazolin-5-yl]-D-alaninamide]
1.58e-05 M | 0.719 µM | COc1cccc(-c2nc3c4ccccc4nc(N[C@H](CCS(C)(=O)=O)C(N)=O)n3n2)c1 [Example 113, (2R)-2-{[2-(3-methoxyphenyl)[1,2,4]triazolo[1,5-c]quinazolin-5-yl]amino}-4-(methylsulfonyl)butanamide]
> 2e-05 M | 5.51 µM and > 5.71 µM | COc1cccc(-c2nc3c4ccccc4nc(N[C@@H](CCCCN)C(N)=O)n3n2)c1 [Example 114, N^2-[2-(3-methoxyphenyl)[1,2,4]triazolo[1,5-c]quinazolin-5-yl]-L-lysinamide]
1.11e-06 M | 0.068 µM | COc1cccc(-c2nc3c4ccccc4nc(NC4CNCCNC4=O)n3n2)c1 (centres unmarked) [Example 115, 6-{[2-(3-methoxyphenyl)[1,2,4]triazolo[1,5-c]quinazolin-5-yl]amino}-1,4-diazepan-5-one]
2.83e-08 M | 0.0541 µM | O=C1NCCCC[C@H]1Nc1nc2ccccc2c2nc(-c3ccccn3)nn12 [Example 124, (3R)-3-{[2-(pyridin-2-yl)[1,2,4]triazolo[1,5-c]quinazolin-5-yl]amino}azepan-2-one]
5.68e-10 M | 0.00464 µM | O=C1NCCCC[C@H]1Nc1nc2ccccc2c2nc(-c3cccnc3)nn12 [Example 125, (3R)-3-{[2-(pyridin-3-yl)[1,2,4]triazolo[1,5-c]quinazolin-5-yl]amino}azepan-2-one]
1.3e-08 M | 0.0148 µM | O=C1NCCCC[C@H]1Nc1nc2ccccc2c2nc(-c3ccncc3)nn12 [Example 126, (3R)-3-{[2-(pyridin-4-yl)[1,2,4]triazolo[1,5-c]quinazolin-5-yl]amino}azepan-2-one]
